Laboratory results published in paper PMC12455570 (2025).

System: FAM-(CUG)10-BHQ (RNA, repeat) GCGCUGCUGCUGCUGCUGCUGAAAAGCUGCUGCUGCUGCUGCGC
Experiment: FAM/BHQ fluorescence thermal melting
Details: 5 μM compound

Compound: CC1CCCn2cc(-c3cccc(NC(=O)CCCCCCNCCCCNCCCCCCC(=O)Nc4cccc(-c5cn6c(n5)C(C)CCC6)c4)c3)nc21 (stereo not shown)
- ΔTm: 3.1 ± 0.7 °C
